The source made the active and inactive calls.
Assays:
HeLa = experiment: viability loss in HeLa cells – cell-based, ATP luminescence, cherry-pick samples, cytotoxicity control, dose response (AID 687004); assay type: functional; details: Homo sapiens
[1] = system: Streptococcus sp. 'group A'; experiment: Streptococcus pyogenes SK(-)GAS viability under kanamycin – luminescence, BacTiterGlo, confirmation, counter-screen for streptokinase expression inhibitor project, dose response (AID 1900); assay type: functional, organism-based
Streptokinase A = target: T1, Streptokinase A (Streptococcus pyogenes serotype M1, UniProt P10520); experiment: viability-normalized secreted streptokinase activity reduction – plasminogen activation absorbance, OD405, dose response (AID 1914); assay type: functional, Streptococcus pyogenes M1 GAS;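 note: secreted streptokinase activity via plasminogen activation per viability signal from cell pellet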
T1 sequence (P10520 whole entry): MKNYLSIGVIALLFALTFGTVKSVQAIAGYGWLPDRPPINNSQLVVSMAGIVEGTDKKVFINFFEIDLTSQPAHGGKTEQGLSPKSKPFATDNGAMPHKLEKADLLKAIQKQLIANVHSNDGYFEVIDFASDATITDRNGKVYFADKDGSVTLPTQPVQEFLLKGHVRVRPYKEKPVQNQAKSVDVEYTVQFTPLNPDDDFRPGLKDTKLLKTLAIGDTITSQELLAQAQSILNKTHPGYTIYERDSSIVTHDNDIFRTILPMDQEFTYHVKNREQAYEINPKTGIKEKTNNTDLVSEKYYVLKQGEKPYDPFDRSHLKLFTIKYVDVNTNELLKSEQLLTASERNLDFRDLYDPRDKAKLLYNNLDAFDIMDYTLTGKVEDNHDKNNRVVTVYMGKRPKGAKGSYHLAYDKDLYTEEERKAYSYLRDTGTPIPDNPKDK

Streptococcus = experiment: GAS UMAA2166 growth inhibition – luminescence, BacTiterGlo, counter-screen for streptokinase expression inhibitor project, dose response (AID 1915); assay type: functional, organism-based;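 note: potency for reduction of bacterial viability or growth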
[2] = reduction of Shn3 3'UTR-driven luciferase in osteoblasts – cell-based, Clone20 osteoblasts, firefly luciferase, cherry-picked, dose response (AID 624132); assay type: functional;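 note: firefly luciferase luminescence from reporter carrying the Shn3 3'UTR in osteoblasts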
[3] = loss of viability in HepG2 cells – cell-based, CellTiter-Glo, cherry-picked, cytotoxicity control for Shn3 inhibitor project, dose response (AID 624134); assay type: functional
[4] = non-specific 3'UTR reporter inhibition in Clone20-Shn3RL – cell-based, Renilla luciferase, cherry-picked, counter-screen for Shn3 inhibitor project, dose response (AID 624133); assay type: functional
Fatty acid synthase [5] = target: T2, Fatty acid synthase (Homo sapiens, UniProt P49327); experiment: inhibition of human FAS-TE enzyme activity – biochemical, endpoint fluorescence intensity, uHTS hits, dose response (AID 624327); assay type: functional;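 note: fluorescence from hydrolysis of an O-methyl fluorescein acyl ester substrate by the enzyme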
Fatty acid synthase [6] = target: T2, Fatty acid synthase; experiment: inhibition of human FAS-TE enzyme activity – biochemical, kinetic fluorescence intensity, dose response (AID 624326); assay type: functional;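 note: rate of fluorescence rise from hydrolysis of a fluorogenic O-methyl fluorescein ester substrate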
Paired box protein Pax-8 = Paired box protein Pax-8 (Homo sapiens, UniProt Q06710); experiment: PAX8 transcriptional activity inhibition in RMG-I – RMG-I cells, luciferase, cherry-pick, dose response (AID 687027); assay type: functional, cell-based;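 note: luciferase reporter driven by Pax8 target thyroperoxidase promoter measured by SteadyGlo luminescence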
[7] = general cell-killing toxicity readout – plate reader, dry powder samples, cytotoxicity control for PAX8 inhibitor project, dose response (AID 743021); assay type: functional, cell-based
BHK-21 = experiment: viability loss in BHK-21 cells – cell-based, plate reader, cherry-pick samples, cytotoxicity control, dose response (AID 687030); assay type: functional; details: Mesocricetus auratus
Beta-lactamase [8] = target: Beta-lactamase (Salmonella choleraesuis (strain SC-B67), UniProt Q5J463); experiment: Epi-absorbance-based counterscreen for selective VIM-2 inhibitors: dose response biochemical high throughput screening assay to identify inhibitors of TEM-1 serine-beta-lactamase.
Beta-lactamase [9] = target: T3, Beta-lactamase (Pseudomonas aeruginosa, UniProt Q79MP6); experiment: inhibition of IMP-1 beta-lactamase activity – biochemical, epi-absorbance, selectivity assay for VIM-2 inhibitor project, dose response (AID 1920)
Beta-lactamase [10] = target: T3, Beta-lactamase; experiment: […] counterscreen for selective VIM-2 inhibitors: dose response biochemical high throughput screening assay to identify inhibitors of IMP-1 metallo-beta-lactamase.
Albumin = Albumin (Bos taurus, UniProt P02769); experiment: Counterscreen for inhibitors of T-cell receptor (TCR)-CD3 interaction: Fluorescence-based biochemical high throughput dose response assay to identify inhibitors of T-cell receptor (TCR)-CD3 interaction using a TAMRA-labeled BSA probe.; assay type: functional
[11] = target: Eukaryotic translation initiation factor 4E (Mus musculus, UniProt P63073); experiment: blockers of eIF4G binding by eIF4E – biochemical, TR-FRET, dose response (AID 855); assay type: functional;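 note: potency for disrupting eIF4E binding to eIF4GI seen as loss of FRET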
[12] = target: T4, Carboxy-terminal domain RNA polymerase II polypeptide A small phosphatase 1 (Homo sapiens, UniProt Q9GZU7); experiment: CTDSP1 inhibitors, concentration-response, biochemical, absorbance readout, ultra-high-throughput screen actives (AID 540297); assay type: functional
T4 sequence (Q9GZU7 whole entry): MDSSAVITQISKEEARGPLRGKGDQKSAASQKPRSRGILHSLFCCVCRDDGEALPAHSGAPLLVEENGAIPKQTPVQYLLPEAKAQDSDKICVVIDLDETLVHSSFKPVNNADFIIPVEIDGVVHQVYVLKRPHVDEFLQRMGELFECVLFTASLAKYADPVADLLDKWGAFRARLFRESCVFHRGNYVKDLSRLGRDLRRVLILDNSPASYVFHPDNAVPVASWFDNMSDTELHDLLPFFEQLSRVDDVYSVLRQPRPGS

[13] = target: Tyrosine-protein phosphatase non-receptor type 11 (Homo sapiens, UniProt Q06124); experiment: PTPN11 enzyme inhibitors – biochemical, selectivity assay for STEP inhibitor project, dose response (AID 602367); assay type: functional; details: read-out: IC50_Mean
[14] = target: Tyrosine-protein phosphatase non-receptor type 5 (Homo sapiens, UniProt P54829); experiment: PTPN5 enzyme inhibition – biochemical, fluorescence intensity, uHTS hits, confirmation (AID 602372); assay type: functional; details: read-out: IC50_Mean
[15] = target: Dual specificity protein phosphatase 3 (Homo sapiens, UniProt P51452); experiment: VHR phosphatase inhibition, dose response, selectivity assay for STEP inhibitor project, biochemical (AID 602374); assay type: functional; details: read-out: IC50_Mean
[16] = target: T5, Tyrosine-protein phosphatase non-receptor type 22 (Homo sapiens, UniProt Q9Y2R2); experiment: lymphoid phosphatase LYP inhibitors – biochemical, selectivity assay for STEP inhibitor project, dose response (AID 624241); assay type: functional
T5 sequence (Q9Y2R2 whole entry): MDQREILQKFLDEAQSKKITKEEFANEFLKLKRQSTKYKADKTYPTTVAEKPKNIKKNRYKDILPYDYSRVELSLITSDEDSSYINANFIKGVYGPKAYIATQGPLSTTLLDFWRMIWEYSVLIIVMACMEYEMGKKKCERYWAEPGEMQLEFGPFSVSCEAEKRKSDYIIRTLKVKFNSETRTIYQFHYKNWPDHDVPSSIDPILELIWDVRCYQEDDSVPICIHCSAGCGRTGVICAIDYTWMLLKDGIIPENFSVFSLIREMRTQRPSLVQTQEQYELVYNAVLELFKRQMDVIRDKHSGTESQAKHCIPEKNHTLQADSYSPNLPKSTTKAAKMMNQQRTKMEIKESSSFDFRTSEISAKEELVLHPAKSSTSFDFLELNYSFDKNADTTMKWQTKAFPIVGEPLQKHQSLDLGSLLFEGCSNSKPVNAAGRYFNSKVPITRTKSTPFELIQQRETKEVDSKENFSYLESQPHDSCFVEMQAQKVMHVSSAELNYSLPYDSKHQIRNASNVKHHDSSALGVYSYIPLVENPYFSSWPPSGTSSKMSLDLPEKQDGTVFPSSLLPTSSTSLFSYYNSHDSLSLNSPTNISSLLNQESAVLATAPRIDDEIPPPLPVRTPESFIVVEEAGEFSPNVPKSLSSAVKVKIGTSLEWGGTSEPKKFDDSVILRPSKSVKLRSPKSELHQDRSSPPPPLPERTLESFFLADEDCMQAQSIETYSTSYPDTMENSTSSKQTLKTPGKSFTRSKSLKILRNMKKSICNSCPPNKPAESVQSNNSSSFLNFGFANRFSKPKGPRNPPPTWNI

T2 sequence (P49327 whole entry): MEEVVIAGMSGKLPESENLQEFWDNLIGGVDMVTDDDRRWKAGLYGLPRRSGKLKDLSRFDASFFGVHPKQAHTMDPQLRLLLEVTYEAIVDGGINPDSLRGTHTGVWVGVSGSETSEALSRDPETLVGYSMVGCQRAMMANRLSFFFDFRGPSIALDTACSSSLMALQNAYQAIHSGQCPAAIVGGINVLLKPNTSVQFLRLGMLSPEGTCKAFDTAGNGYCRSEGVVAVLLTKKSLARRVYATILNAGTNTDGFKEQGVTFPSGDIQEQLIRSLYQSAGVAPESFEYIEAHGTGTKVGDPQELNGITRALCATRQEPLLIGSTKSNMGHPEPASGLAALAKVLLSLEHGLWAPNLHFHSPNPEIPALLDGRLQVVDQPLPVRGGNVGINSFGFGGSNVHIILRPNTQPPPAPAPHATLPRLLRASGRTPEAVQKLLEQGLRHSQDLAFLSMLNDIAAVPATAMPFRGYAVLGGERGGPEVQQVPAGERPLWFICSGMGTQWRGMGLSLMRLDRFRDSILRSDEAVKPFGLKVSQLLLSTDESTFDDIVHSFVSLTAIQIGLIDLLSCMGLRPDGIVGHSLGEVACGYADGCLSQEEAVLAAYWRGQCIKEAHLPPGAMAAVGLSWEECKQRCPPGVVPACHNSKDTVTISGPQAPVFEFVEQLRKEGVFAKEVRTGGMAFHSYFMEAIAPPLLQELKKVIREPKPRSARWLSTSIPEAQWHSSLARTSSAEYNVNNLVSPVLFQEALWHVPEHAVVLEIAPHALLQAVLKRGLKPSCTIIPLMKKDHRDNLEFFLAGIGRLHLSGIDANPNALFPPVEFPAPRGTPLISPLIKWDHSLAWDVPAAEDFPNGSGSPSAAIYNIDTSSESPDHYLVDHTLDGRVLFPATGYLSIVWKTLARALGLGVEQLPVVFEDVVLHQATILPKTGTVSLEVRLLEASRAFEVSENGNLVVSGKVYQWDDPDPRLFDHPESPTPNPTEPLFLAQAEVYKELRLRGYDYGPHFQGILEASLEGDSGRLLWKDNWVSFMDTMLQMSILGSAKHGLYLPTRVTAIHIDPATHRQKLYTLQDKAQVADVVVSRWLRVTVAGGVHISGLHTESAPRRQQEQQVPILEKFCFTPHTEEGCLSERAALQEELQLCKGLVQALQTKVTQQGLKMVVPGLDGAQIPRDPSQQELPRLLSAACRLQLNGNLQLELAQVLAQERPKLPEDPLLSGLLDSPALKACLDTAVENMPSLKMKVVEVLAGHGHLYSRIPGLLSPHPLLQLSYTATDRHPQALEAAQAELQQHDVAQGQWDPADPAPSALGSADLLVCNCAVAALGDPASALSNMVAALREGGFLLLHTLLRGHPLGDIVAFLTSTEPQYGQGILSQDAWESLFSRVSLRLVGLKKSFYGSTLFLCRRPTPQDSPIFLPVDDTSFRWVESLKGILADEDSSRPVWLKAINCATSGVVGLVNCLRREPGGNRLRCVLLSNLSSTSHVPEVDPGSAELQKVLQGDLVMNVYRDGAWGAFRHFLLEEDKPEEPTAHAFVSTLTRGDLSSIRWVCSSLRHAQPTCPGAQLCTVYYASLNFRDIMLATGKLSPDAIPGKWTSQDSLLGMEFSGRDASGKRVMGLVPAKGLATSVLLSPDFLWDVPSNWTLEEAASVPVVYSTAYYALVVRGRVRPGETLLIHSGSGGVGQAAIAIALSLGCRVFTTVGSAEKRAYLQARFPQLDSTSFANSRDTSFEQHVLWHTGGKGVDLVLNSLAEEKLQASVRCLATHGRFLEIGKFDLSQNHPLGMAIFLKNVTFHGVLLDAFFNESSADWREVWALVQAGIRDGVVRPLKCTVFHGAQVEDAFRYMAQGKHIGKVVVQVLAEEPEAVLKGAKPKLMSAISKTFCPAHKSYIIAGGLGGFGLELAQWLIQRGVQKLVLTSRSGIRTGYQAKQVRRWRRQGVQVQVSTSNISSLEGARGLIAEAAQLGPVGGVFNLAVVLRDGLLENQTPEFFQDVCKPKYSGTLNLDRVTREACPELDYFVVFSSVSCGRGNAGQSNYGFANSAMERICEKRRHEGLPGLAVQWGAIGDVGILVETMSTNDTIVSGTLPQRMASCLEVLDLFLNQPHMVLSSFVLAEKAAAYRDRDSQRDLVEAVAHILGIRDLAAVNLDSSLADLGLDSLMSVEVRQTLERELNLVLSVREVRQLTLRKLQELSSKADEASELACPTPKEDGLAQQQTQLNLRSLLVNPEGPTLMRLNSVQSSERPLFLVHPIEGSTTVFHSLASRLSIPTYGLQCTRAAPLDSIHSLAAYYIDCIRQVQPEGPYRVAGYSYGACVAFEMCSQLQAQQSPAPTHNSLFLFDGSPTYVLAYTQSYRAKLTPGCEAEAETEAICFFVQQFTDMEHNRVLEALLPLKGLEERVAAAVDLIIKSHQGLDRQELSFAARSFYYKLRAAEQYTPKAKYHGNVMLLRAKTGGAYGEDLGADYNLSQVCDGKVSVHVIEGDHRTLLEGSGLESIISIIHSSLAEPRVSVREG
T3 sequence (Q79MP6 whole entry): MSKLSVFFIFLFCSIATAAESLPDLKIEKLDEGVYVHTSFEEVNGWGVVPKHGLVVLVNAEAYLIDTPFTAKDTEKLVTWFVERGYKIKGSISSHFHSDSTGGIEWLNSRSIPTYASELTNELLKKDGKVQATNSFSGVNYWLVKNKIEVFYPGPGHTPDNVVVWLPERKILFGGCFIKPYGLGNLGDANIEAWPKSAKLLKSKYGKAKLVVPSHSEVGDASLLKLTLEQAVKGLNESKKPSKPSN
Chain of Beta-lactamase (Salmonella choleraesuis (strain SC-B67), UniProt Q5J463) (Q5J463 whole entry): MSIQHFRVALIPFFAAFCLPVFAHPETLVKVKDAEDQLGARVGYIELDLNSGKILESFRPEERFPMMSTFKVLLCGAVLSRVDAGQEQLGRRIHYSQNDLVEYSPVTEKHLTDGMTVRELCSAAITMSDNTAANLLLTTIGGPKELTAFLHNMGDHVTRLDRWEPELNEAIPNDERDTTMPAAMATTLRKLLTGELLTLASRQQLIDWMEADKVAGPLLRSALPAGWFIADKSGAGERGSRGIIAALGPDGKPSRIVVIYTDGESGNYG
Chain of Paired box protein Pax-8 (Q06710 whole entry): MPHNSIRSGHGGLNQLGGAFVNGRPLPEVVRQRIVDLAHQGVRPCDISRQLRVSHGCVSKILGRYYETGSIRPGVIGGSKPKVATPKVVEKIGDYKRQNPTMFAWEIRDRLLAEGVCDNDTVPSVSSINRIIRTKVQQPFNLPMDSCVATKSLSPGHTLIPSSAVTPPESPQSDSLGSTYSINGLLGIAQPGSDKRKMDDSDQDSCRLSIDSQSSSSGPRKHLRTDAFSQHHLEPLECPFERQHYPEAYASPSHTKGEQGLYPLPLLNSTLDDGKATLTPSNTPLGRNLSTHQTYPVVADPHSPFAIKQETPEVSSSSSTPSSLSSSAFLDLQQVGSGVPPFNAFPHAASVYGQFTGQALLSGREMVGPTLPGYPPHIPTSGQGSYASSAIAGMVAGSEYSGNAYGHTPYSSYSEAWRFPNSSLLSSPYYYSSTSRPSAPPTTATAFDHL
Chain of Tyrosine-protein phosphatase non-receptor type 5 (P54829 whole entry): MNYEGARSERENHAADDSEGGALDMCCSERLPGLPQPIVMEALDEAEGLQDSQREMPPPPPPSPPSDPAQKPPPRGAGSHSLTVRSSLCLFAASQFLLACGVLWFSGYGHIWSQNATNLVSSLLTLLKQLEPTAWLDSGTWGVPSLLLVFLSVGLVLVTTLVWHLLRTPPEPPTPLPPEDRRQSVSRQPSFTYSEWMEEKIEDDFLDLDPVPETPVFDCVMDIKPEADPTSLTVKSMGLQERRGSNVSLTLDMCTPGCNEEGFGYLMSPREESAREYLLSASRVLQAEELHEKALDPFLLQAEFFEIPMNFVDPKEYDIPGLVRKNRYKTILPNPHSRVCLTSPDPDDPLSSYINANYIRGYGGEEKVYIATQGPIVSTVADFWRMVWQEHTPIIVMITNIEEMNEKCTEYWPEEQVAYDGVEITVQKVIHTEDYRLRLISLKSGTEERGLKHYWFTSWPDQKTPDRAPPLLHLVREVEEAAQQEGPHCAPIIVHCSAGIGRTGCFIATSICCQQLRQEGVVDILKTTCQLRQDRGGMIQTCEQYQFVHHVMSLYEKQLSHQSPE
Chain of Albumin (P02769 whole entry): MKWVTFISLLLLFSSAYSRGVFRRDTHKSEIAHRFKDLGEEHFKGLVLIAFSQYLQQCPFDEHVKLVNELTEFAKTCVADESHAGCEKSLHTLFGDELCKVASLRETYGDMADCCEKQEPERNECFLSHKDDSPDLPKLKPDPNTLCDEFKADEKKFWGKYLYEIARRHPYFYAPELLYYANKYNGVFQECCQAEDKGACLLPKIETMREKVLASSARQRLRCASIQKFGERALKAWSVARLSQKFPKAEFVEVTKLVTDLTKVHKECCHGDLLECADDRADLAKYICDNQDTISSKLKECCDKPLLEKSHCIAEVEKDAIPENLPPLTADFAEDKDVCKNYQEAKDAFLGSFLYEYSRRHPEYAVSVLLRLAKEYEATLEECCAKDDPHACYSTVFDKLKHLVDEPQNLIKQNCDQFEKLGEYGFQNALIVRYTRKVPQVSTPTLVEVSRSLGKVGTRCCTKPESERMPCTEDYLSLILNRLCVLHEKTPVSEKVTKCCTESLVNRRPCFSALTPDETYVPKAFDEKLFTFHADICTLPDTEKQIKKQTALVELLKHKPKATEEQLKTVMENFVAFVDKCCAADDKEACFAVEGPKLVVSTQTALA
Chain of Eukaryotic translation initiation factor 4E (P63073 whole entry, the tested form may be a part): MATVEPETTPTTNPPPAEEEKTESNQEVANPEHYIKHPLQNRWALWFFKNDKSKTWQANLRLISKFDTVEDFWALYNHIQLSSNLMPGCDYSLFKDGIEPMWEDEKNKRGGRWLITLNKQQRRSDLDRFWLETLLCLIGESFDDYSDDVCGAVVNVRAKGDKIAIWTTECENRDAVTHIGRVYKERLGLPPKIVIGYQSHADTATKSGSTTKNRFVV
Chain of Dual specificity protein phosphatase 3 (P51452 whole entry): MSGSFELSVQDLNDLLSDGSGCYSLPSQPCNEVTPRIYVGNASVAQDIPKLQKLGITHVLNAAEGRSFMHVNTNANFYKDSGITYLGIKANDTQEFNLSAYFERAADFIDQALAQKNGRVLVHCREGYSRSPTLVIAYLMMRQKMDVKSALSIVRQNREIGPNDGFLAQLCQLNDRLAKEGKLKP

## Cc1cccc(N=C(S)NN(Cc2ccccc2)c2ccccc2)c1C
HeLa
  AC50: > 52 µM (inactive)

## CCOc1ccccc1NC(=O)c1nc(S(=O)(=O)Cc2ccccc2)ncc1Cl
[1]
  EC50: 12.5 µM (active)
Streptokinase A
  EC50: 1.98 µM (active)
Streptococcus
  EC50: 13.7 µM (active)
[2]
  AC50: 0.376 µM (active)
[3]
  AC50: 16.9 µM (active)
[4]
  AC50: 6.36 µM (active)
Fatty acid synthase [5]
  IC50: 7.85 µM (active)
Fatty acid synthase [6]
  IC50: 7.5 µM (active)
Paired box protein Pax-8
  AC50: 7.1 µM (active)
[7]
  AC50: 21.7 µM (active)

## CCN(CC)CC(=O)N1CCCC(N2CCN(c3cccc(C(F)(F)F)c3)CC2)C1 (configuration not stated)
BHK-21
  AC50: 33.4 µM (active)

## COc1ccc(-c2n[nH]c(=S)n2-c2ccc3c(c2)OCCO3)cc1OC
Beta-lactamase [8]
  IC50: > 59.6 µM (inactive)
Beta-lactamase [9]
  IC50: > 59.6 µM (inactive)
Beta-lactamase [10]
  IC50: > 59.6 µM (inactive)

## CC(C)C(=O)Nc1ccc(C(=O)NNC(=S)NC(=O)c2ccccc2[N+](=O)[O-])cc1
Albumin
  IC50: > 94.1 µM (inactive)

## O=C(O)c1ccc2c(c1)C(=O)N(c1cccc(-c3nc4ccccc4s3)c1)C2=O
[11]
  IC50: 50 µM (inactive)
[12]
  IC50: 7.07 µM (active)
[13]
  IC50: 6.24 µM (active)
[14]
  IC50: 8.03 µM (active)
[15]
  IC50: 6.02 µM (active)
[16]
  IC50: 35.6 µM (inactive)
